We go through 14 compounds from US7052724B2, “Method of producing active dry yeast” (Suntory Limited, priority 2001, dated 2006).

The structures appear in SMILES notation.

This data set deals with recovered yeast (slurry yeast recovered from the beer fermentation step). The data set can be described thus: Methylene Blue staining ratio (mortality) of yeast before drying or after drying and reconstitution with water. In kind it is cell-based. The note with it: for Elevating the survival ratio of the dry yeast after reconstitution with water, similar to trehalose: as substitute for trehalose; for Elevating the survival ratio of the yeast after reconstitution with water, similar to glycerol: as substitute for glycerol; for Ratio of the dead cells after drying and reconstitution with water: 5% of trehalose. The method, then:
50 g of a 20% aqueous solution of trehalose was added to 50 g of the recovered yeast and the resultant mixture was stirred at 20° C. for 3 hours to thereby incorporate the trehalose into the yeast cells. Then the yeast having trehalose thus incorporated was filtered under suction on a filter paper No.2 with the use of a Nutsche filter. The obtained yeast was then passed through a 14-mesh sieve and dried in a thermostat at 30° C. for about 20 hours to give a dry yeast. 0.1 g of this dry yeast was suspended and reconstituted in 1 ml of distilled water at room temperature. Then the mortality of the yeast was measured by the Methylene Blue staining method. Since dead cells could not reduce Methylene Blue, the cells stained with Methylene Blue were regarded as dead cells. Thus, the Methylene Blue staining ratio could be referred to as the mortality. […] Thus, trehalose was incorporated as in Example 1 and then the yeast was dried. […]
To 50 g of the slurry yeast recovered from the beer fermentation step, 50 g of an aqueous trehalose solution (concentration: about 20%) was added. After stirring at 20° C. for 3 hours, the yeast was centrifuged, suspended in 50 g portions of 300 g/L aqueous solutions of various sugar alcohols and maintained at room temperature for 15 minutes. Subsequently, the yeast was filtered under suction on a filter paper No.2 as in Example 2. The obtained yeast was passed through a 14-mesh sieve and dried in a thermostat at 5° C. for about 20 hours. The dry yeast thus obtained was reconstituted with water as in Example 2 and stained with Methylene Blue to measure the mortality of the yeast.
To 50 g of the slurry yeast recovered from the beer fermentation step, 50 g of an aqueous trehalose solution (concentration: about 20%) was added. After stirring at 20° C. for 3 hours, the yeast was centrifuged, suspended in 50 g of an about 300 g/L aqueous glycerol solution and maintained at room temperature for 15 minutes. Subsequently, the yeast was filtered under suction on a filter paper No.2 as in Example 2. The obtained yeast was passed through a 14-mesh sieve and dried in a thermostat at 5° C. to 30° C. for about 20 hours. Alternatively, the yeast was dried by using a fluidized bed dryer at 30° C. for 1 hour. Each of the dry yeast thus obtained was rehydrated with water as in Example 2 and stained with Methylene Blue to measure the mortality of the yeast.

The mark [1] stands for this setting: sugar/sugar alcohol (about 20% solution, 20° C., 3 hours) as substitute for trehalose, then 300 g/L glycerol, dried at 5° C.
Setting [2] is: trehalose-treatment, then 300 g/L sugar alcohol as substitute for glycerol, 15 minutes, dried at 5° C.
[3] abbreviates: glycerol 100 g/L after trehalose-treatment.
[4] abbreviates: glycerol 150 g/L after trehalose-treatment.
Setting [5] is: glycerol 200 g/L after trehalose-treatment.
Where [6] appears, read: glycerol 300 g/L after trehalose-treatment.
Where [7] appears, read: trehalose-treatment as in Example 2, after rehydration with water.

On to `OC[C@H]1O[C@H](O[C@H]2[C@H](O)[C@@H](O)[C@H](O)O[C@@H]2CO)[C@H](O)[C@@H](O)[C@@H]1O` [Maltose], for which, under setting [1], the “Methylene Blue-staining ratio (%) after reconstitution with water” value (shortened to “Methylene Blue-staining ratio (%)”) was 56.4%.

`OC1OC[C@@H](O[C@@H]2OC[C@@H](O)[C@H](O)[C@H]2O)[C@H](O)[C@H]1O` (some centres unmarked) [Xylobiose]: under setting [1], the “Methylene Blue-staining ratio (%)” value is on record as 46.5%.

With `O=C[C@H](O)[C@@H](O)[C@@H](O)[C@H](O)CO` [Galactose], the “Methylene Blue-staining ratio (%)” value under setting [1] stood at 40.6%.

Consider `O=C[C@H](O)[C@@H](O)[C@H](O)CO` [Xylose], for which the “Elevating the survival ratio of the dry yeast after reconstitution with water, similar to trehalose” value (“Elevating the survival ratio … to trehalose” for short) is “effective”. For the same compound, the “Methylene Blue-staining ratio (%)” value under setting [1] is listed as 37.7%.

Turning to `OC[C@@H](O)[C@@H](O)[C@H](O)[C@@H](O)CO` [Sorbitol], the “Methylene Blue-staining ratio (%)” value reads like this: under setting [1], 41.8%; under setting [2], 41.2%.

Turning to `OCC(O)CO` [Glycerol, glycerol], the “Methylene Blue-staining ratio, after reconstitution with water after drying and storing at 25° C. for 8 days” value is 59.8% under setting [3], 62.3% under setting [4], 40.2% under setting [5] and 48.5% under setting [6]. Further, the “Methylene Blue-staining ratio, before drying” value is 20.8% under setting [3]; 66.7% under setting [4]; 97.8% under setting [5]; 99.6% under setting [6]; 95.8% (trehalose-treatment then 300 g/L aqueous glycerol, 15 minutes). For the same compound, the “Methylene Blue-staining ratio, immediately after drying/reconstitution with water” value reads like this: (glycerol 100 g/L after trehalose-treatment, dried at 5° C.) 30.8%; (glycerol 150 g/L after trehalose-treatment, dried at 5° C.) 23.7%; (glycerol 200 g/L after trehalose-treatment, dried at 5° C.) 26.3%; (glycerol 300 g/L after trehalose-treatment, dried at 5° C.) 26.2%. Under “trehalose-treatment then 300 g/L aqueous glycerol, 15 minutes, dried at 5° C.”, the “Methylene Blue-staining ratio, after drying/reconstitution with water” value is on record as 18.3%. The “Methylene Blue-staining ratio (%)” value under setting [2] is listed as 24.4%.

Turning to `OC[C@H]1O[C@@](CO)(O[C@H]2O[C@H](CO)[C@@H](O)[C@H](O)[C@H]2O)[C@@H](O)[C@@H]1O` [Sucrose], the “Methylene Blue-staining ratio (%)” value under setting [1] came to 51.9%.

For the compound `OC[C@H]1O[C@@H](O[C@H]2[C@H](O)[C@@H](O)C(O)O[C@@H]2CO)[C@H](O)[C@@H](O)[C@H]1O` (some centres unmarked) [Lactose], the “Methylene Blue-staining ratio (%)” value under setting [1] was found to be 38.6%.

Consider `OC[C@@H](O)[C@@H](O[C@H]1O[C@H](CO)[C@@H](O)[C@H](O)[C@H]1O)[C@H](O)[C@@H](O)CO` [Maltitol], for which the “Elevating the survival ratio of the yeast after reconstitution with water, similar to glycerol” value is recorded as “effective” and the “Elevating the survival ratio … to trehalose” value was “effective”. For the same compound, the “Methylene Blue-staining ratio (%)” value under setting [1] is reported as 29.7%. Further, under setting [2], the “Methylene Blue-staining ratio (%)” value amounted to 30.1%.

With `O=C(CO)[C@@H](O)[C@H](O)[C@H](O)CO` [Fructose], under setting [1], the “Methylene Blue-staining ratio (%)” value turned out to be 51.1%.

With `OC[C@H]1O[C@H](O[C@H]2O[C@H](CO)[C@@H](O)[C@H](O)[C@H]2O)[C@H](O)[C@@H](O)[C@@H]1O` [Trehalose, trehalose], the “Ratio of the dead cells after drying and reconstitution with water” value runs as follows: (10° C., 1 or 3 hours) “about 60%”; (10° C., 21 hours) “about 90%”. The “Methylene Blue-staining ratio” value reads like this: (before drying, treated with 5% trehalose, 10° C., 1 Hrs) 8.97; (before drying, treated with 5% trehalose, 10° C., 3 Hrs) 8.45; (before drying, treated with 5% trehalose, 10° C., 21 Hrs) 11.88; (before drying, treated with 5% trehalose, 20° C., 1 Hrs) 6.58; (before drying, treated with 5% trehalose, 20° C., 3 Hrs) 7.51; (before drying, treated with 5% trehalose, 20° C., 21 Hrs) 16.44. Further, the “Methylene Blue-staining ratio” value reads like this: (before drying, treated with 10% trehalose, 10° C., 1 Hrs) 6.36; (before drying, treated with 10% trehalose, 10° C., 3 Hrs) 8.67; (before drying, treated with 10% trehalose, 10° C., 21 Hrs) 17.68; (before drying, treated with 10% trehalose, 20° C., 1 Hrs) 8.26; (before drying, treated with 10% trehalose, 20° C., 3 Hrs) 9.24; (before drying, treated with 10% trehalose, 20° C., 21 Hrs) 8.90. For the same compound, the “Methylene Blue-staining ratio” value came out at 63.72 (immediately after reconstitution with water (dried at 30° C.), 5% trehalose, 10° C., 1 Hrs); 63.40 (immediately after reconstitution with water (dried at 30° C.), 5% trehalose, 10° C., 3 Hrs); 90.11 (immediately after reconstitution with water (dried at 30° C.), 5% trehalose, 10° C., 21 Hrs); 64.95 (immediately after reconstitution with water (dried at 30° C.), 5% trehalose, 20° C., 1 Hrs); 84.17 (immediately after reconstitution with water (dried at 30° C.), 5% trehalose, 20° C., 3 Hrs); 92.47 (immediately after reconstitution with water (dried at 30° C.), 5% trehalose, 20° C., 21 Hrs). Further, the “Methylene Blue-staining ratio” value runs as follows: (immediately after reconstitution with water (dried at 30° C.), 10% trehalose, 10° C., 1 Hrs) 69.51; (immediately after reconstitution with water (dried at 30° C.), 10% trehalose, 10° C., 3 Hrs) 64.95; (immediately after reconstitution with water (dried at 30° C.), 10% trehalose, 10° C., 21 Hrs) 79.33; (immediately after reconstitution with water (dried at 30° C.), 10% trehalose, 20° C., 1 Hrs) 62.15; (immediately after reconstitution with water (dried at 30° C.), 10% trehalose, 20° C., 3 Hrs) 62.04; (immediately after reconstitution with water (dried at 30° C.), 10% trehalose, 20° C., 21 Hrs) 87.43. Further, the “Methylene Blue-staining ratio (%)” value under setting [1] was 32.2%. Besides, the “Mortality (%) after drying at 30° C.” value under setting [7] worked out at 73.4%. In addition, the “Mortality (%) after drying at 50° C.” value under setting [7] amounted to 58.0%.

Regarding `OC[C@@H](O)[C@@H](O)[C@H](O)[C@H](O)CO` [Mannitol], the “Elevating the survival ratio … to trehalose” value is recorded as “effective”. Besides, the “Methylene Blue-staining ratio (%)” value under setting [1] was determined as 37.1%. The “Methylene Blue-staining ratio (%)” value under setting [2] is given as 47.5%.

With `OC[C@@H](O)[C@H](O)[C@@H](O)CO` [Xylitol], the “Elevating the survival ratio of the yeast after reconstitution with water, similar to glycerol” value is listed as “effective”. Besides, the “Methylene Blue-staining ratio (%)” value under setting [1] is on record as 41.6%. The “Methylene Blue-staining ratio (%)” value under setting [2] amounted to 30.4%.

On to `O=C[C@H](O)[C@@H](O)[C@H](O[C@@H]1O[C@H](CO)[C@@H](O)[C@H](O)[C@H]1O)[C@H](O)CO` [Cellobiose], for which the “Methylene Blue-staining ratio (%)” value under setting [1] is 54.8%.
